Laboratory results taken from patent publication US7901893B2, “NPC1L1 (NPC3) and methods of identifying ligands thereof” (Merck Sharp & Dohme Corp., priority 2004, dated 2011).

Tests used:
[1] = target: T1, rat brush border membrane vesicles (Rattus norvegicus, UniProt Q6T3U3); experiment: Binding assay with rat brush border membrane vesicles
T1 construct: from tissue; host or cells: rat (male Sprague-Dawley) small-intestinal mucosa, brush border membrane vesicles
Description: Glass fiber filters (GF/C) were obtained from Whatman.
Rate constants for binding and dissociation.
(§1) Analog structures are defined in Table 12.

[2] = target: T2, rhesus brush border membrane vesicles (Macaca mulatta, UniProt A0MJA5); experiment: Binding assay with rhesus brush border membrane vesicles
T2 sequence (A0MJA5 1-1332): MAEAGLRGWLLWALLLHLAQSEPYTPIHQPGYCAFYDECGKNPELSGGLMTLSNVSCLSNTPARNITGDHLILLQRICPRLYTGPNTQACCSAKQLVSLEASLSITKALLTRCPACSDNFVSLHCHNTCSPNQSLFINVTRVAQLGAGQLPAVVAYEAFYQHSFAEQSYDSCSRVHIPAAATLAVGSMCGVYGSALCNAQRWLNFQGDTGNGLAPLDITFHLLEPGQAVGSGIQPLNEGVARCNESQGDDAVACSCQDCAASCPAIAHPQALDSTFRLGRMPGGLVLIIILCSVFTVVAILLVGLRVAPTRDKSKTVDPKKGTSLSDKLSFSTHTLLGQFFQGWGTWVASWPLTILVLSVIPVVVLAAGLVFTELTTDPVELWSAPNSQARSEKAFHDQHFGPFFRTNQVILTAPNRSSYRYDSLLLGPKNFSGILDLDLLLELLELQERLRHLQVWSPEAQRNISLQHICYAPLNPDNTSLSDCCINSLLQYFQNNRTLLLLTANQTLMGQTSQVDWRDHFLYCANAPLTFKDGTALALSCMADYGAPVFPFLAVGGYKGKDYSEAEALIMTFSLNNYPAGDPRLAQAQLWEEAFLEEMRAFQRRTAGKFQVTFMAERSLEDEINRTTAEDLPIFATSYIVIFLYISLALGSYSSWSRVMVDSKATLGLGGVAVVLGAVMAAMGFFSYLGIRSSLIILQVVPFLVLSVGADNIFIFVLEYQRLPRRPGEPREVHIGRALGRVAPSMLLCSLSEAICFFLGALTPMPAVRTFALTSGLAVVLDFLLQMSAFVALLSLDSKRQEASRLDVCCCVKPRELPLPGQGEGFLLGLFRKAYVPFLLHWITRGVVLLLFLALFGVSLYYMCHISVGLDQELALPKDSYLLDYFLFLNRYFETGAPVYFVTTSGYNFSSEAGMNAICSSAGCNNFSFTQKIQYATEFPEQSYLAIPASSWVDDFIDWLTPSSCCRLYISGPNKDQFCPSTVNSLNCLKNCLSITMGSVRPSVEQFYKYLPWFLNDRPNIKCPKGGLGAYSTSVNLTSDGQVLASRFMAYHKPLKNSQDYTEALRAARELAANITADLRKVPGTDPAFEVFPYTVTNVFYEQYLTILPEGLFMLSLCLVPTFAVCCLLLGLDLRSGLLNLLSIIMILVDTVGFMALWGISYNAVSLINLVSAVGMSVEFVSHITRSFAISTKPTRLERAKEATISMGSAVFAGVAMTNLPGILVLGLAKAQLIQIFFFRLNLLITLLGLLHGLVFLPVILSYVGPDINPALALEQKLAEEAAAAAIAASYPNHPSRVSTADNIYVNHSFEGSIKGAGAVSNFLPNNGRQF
Description: The intestines from freshly sacrificed animals were cut into segments, perfused with ice-cold saline buffer (Buffer A: 26 mM NaHCO3, 0.96 mM NaH2PO4, 5 mM HEPES, 5.5 mM glucose, 117 mM NaCl, 5.4 mM KCl, pH=7.4), placed on cold glass plates, opened longitudinally, and the mucosa scraped with glass microscope slips. This mucosa could be used fresh or frozen with identical results. To prepare the membranes, the mucosal scrapings were resuspended in 20 volumes of cold buffer consisting of 300 mM D-mannitol, 5 mM EGTA, 12 mM Tris, pH 7.4 with HCl, and containing 0.1 mM PMSF and a 1% dilution of a protease inhibitor cocktail (set 1, Calbiochem). They were homogenized using a Polytron at medium speed on ice until inspection with a microscope indicated complete cell lysis. Then, solid MgCl2 was added slowly with stirring to a final concentration of 10 mM, and the solution was kept stirring on ice for 15 min. Cellular debris was removed by centrifugation for 15 min at 3,000 g, and the membranes were recovered by centrifugation for 60 min at 48,000 g. The membranes were further rinsed by re-suspension in a buffer containing 50 mM D-mannitol, 5 mM EGTA, and 2 mM Tris at pH 7.40, and centrifugation for 60 min at 48,000 g. The final pellet was resuspended in 120 mM NaCl and 20 mM Tris at pH 7.40 to a concentration of ˜10-20 mg protein/ml, aliquoted, frozen in liquid nitrogen, and stored at −80 C. The activity was stable indefinitely and could be freeze-thawed with minimal loss of activity.
Binding assay. Assays were conducted in 12×75 mm glass test tubes and total volume 20-100 ul. In general, frozen membranes were diluted in buffer A or buffer A containing 0.03% taurocholate and 0.05% digitonin to a final concentration of 0.02 to 5 mg/ml. […] Competing ligands were likewise added as DMSO solutions to give a total 2-10% organic solvent content. […] At least 2 components of buffer A, the bicarbonate and phosphate salts, were later found to be inconsequential and were routinely omitted.
Bound ligand was quantified by single-tube vacuum filtration using GF/C glass fiber filters. […] Filtration was accomplished by adding 2.5 ml of ice cold buffer (120 mM NaCl, 0.1% sodium cholate, and 20 mM MES at pH 6.70) to the assay tube, pouring the mixture through the filter, and then rinsing the tube and filter twice more with another 2×2.5 ml buffer. The filters were counted in 7 ml vials using Packard DM liquid scintillation fluid.
Data analysis. Data from saturation experiments were subjected to a Scatchard analysis, and linear regression was performed to yield the equilibrium dissociation constant (Kd) and maximum receptor concentration (Bmax). […] Data from competition experiments were analyzed and IC50 values determined from Hill plots of the binding data.

rat NPC1L1 = rat NPC1L1 (Rattus norvegicus, UniProt Q6T3U3); experiment: Binding to membranes of HEK-293 cells expressing recombinant rat NPC1L1; parameters: expressed in transfected cells; host or cells: HEK-293 cells (ATCC), transient, pCR3.1; membranes; conditions: 0.03% sodium taurocholate and 0.05% digitonin; 1.25 mg protein/ml, 100 nM 1
Description: (§2) Transient expression of NPC1L1. Plasmid pCR3.1 expressing rat NPC1L1 (Genbank AY437867) or human NPC1L1 (Genbank AY437865) were prepared using standard molecular biology protocols. HEK-293 cells (ATCC) were seeded at 10×10^6 cells per T-225 flask (Corning) in DMEM containing 10% fetal calf serum, 4.5 g/L D-glucose and L-glutamine, 18 hours prior to transfection. They were transiently transfected with 25 μg of DNA using Fugene transfection reagent (Roche Biochemical) at a ratio of 6:1 Fugene:DNA. Following transfection, the cells were incubated at 37° C. and 5% CO2 for 48 hours, and then harvested using PBS based cell dissociation buffer (Gibco), pelleted at 500×g, snap frozen on dry ice, and stored at −80° C.
(§3) Membrane preparation from HEK-293 cells. Membranes were prepared by resuspending the frozen cell pellets in ten volumes of 20 mM HEPES/Tris buffer at pH 7.40 containing 8% sucrose, and sonicating the suspensions with a probe sonicator on ice until most of the cells were lysed. To isolate the membranes, the sonicates were centrifuged at 1600×g for 10 min to remove cell debris, and then the supernatants were centrifuged at 125,000×g for 1 hour to recover the membranes. These membranes were resuspended in 20 mM HEPES/Tris buffer at pH 7.40 containing 160 mM NaCl and 5% glycerol, and stored at 10-20 mg/ml protein at −80° C.
as §1

human NPC1L1 = target: T3, human NPC1L1 (Homo sapiens, UniProt Q9UHC9, G1187D/M616T/T1073A); experiment: Binding to membranes of HEK-293 cells expressing recombinant human NPC1L1; parameters: expressed in transfected cells; host or cells: HEK-293 cells (ATCC), transient, pCR3.1; membranes; conditions: 0.03% sodium taurocholate and 0.05% digitonin; 1.25 mg protein/ml, 100 nM 1
T3 sequence (Q9UHC9 22-1332 isoform Q9UHC9-2 M616T/T1046A/G1160D limits assumed): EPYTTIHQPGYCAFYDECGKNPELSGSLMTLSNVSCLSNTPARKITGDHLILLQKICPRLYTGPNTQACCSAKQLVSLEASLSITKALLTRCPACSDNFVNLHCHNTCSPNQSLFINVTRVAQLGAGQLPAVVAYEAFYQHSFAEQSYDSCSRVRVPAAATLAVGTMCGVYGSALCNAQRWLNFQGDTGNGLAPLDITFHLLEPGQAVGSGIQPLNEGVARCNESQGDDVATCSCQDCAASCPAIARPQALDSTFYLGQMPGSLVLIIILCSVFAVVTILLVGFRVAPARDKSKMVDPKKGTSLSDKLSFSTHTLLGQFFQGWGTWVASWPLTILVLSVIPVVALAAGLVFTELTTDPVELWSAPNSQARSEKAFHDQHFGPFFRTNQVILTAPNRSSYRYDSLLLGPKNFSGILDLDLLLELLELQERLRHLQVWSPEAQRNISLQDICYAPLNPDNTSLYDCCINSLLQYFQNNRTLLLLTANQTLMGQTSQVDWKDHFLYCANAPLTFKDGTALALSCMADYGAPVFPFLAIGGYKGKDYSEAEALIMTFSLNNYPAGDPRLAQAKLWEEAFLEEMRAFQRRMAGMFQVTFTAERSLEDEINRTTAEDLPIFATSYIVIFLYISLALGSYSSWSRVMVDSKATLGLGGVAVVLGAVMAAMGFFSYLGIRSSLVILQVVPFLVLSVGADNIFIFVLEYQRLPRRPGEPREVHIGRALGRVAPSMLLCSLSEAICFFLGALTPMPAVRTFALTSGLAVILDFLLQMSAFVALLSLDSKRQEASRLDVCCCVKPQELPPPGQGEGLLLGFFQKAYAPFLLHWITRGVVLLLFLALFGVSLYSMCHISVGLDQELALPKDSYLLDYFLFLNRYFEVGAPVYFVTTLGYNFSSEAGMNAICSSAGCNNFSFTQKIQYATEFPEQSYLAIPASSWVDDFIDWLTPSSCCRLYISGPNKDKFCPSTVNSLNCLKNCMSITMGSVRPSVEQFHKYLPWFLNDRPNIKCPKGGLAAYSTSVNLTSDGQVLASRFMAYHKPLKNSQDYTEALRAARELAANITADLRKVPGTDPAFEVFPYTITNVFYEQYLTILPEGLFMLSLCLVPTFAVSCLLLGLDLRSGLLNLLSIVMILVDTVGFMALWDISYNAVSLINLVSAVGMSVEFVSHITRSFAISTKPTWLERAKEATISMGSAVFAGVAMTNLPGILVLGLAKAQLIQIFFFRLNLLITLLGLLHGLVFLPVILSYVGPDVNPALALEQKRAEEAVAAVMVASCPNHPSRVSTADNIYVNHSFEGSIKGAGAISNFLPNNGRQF
Description: as §2, §3, §1

Ki ([1]; 0.03% sodium taurocholate and 0.05% digitonin, 1.25 mg protein/ml, 100 nM 1, read-out: Rat BBM Ki): 280 nM
IC50 ([1]; rat brush border membrane vesicles, read-out: RAT IC50 (nM), inhibition of ^3H-EZE-gluc binding): 252 nM
Ki [2]: 60 nM
Ki (rat NPC1L1): 360 nM
Ki (human NPC1L1): 210 nM
SMILES: O=C(O)[C@H]1O[C@@H](Oc2ccc([C@@H]3[C@@H](CC[C@H](O)c4ccc(F)cc4)C(=O)N3c3ccc(F)cc3)c(O)c2)[C@H](O)[C@@H](O)[C@@H]1O [Compound 7]
